Assay results from publication PMC9851200, “Multiparameter phenotypic screening for endogenous TFEB and TFE3 translocation identifies novel chemical series modulating lysosome function” (Autophagy, 2022).

Tests used:
[1] = test system: SH-SY5Y cells; assay: Nuclear count from microscopy images (cellular growth and toxicity); conditions: PKIS2 primary screening; note: reference of the scale not given here
[2] = test system: endogenous TFE3; assay: TFE3 nuclear translocation, immunocytochemistry high-content imaging; format: cell-based; conditions: PKIS2 primary screening; note: test concentration or dose not given here
[3] = test system: endogenous TFEB; assay: TFEB nuclear translocation, immunocytochemistry high-content imaging; format: cell-based; conditions: PKIS2 primary screening; note: test concentration or dose not given here
[4] = test system: SH-SY5Y cells; conditions: PKIS2 primary screening; for DQ Intensity: DQ Red BSA intensity; for DQ Spot: DQ Red BSA spot count; for all read-outs here: reference of the scale not given here
[5] = test system: SH-SY5Y cells; assay: AK (adenylate kinase) release ToxiLight cytotoxicity assay; conditions: PKIS2 primary screening; note: reference of the scale not given here
[6] = test system: SH-SY5Y cells; assay: Chemotype enrichment analysis of PKIS2 primary screen hit categories; conditions: PKIS2 primary screening, hit category

c1ccc(-c2n[nH]cc2Nc2ccnc3ccccc23)nc1 [UNC10225048A]
Nuclear Count [1]: 152.96 | TFE3 % [2]: 9.11% | TFEB % [3]: 2.79% | DQ Intensity [4]: 106.75 | DQ Spot [4]: 56.59 | AK [5]: 99.18 | Outcome [6]: LYSO TOXIC

c1ccc(Oc2ccc(Nc3ccnc4cc(-c5ccc(CNCCN6CCOCC6)o5)ccc34)cc2)nc1 [UNC10225054A]
Nuclear Count [1]: 92.65 | TFE3 % [2]: 33.41% | TFEB % [3]: 22.56% | DQ Intensity [4]: 95.11 | DQ Spot [4]: 49.97 | AK [5]: 119.39 | Outcome [6]: LYSO TOXIC

c1ccc(Oc2ccc(Nc3ccnc4cc(-c5ccc(CN6CCCCC6)o5)ccc34)cc2)nc1 [UNC10225094A]
Nuclear Count [1]: 127.56 | TFE3 % [2]: 31.67% | TFEB % [3]: 15.03% | DQ Intensity [4]: 89.29 | DQ Spot [4]: 45.68 | AK [5]: 71.77 | Outcome [6]: LYSO TOXIC

Fc1cc(Cl)ccc1Nc1ccnc2cc(-c3ccc(CN4CCOCC4)o3)ccc12 [UNC10225106A]
Nuclear Count [1]: 98.32 | TFE3 % [2]: 18.79% | TFEB % [3]: 10.01% | DQ Intensity [4]: 127.02 | DQ Spot [4]: 67.74 | AK [5]: 77.69 | Outcome [6]: LYSO TOXIC

Nc1ncc(-c2ccc3nccc(-c4ccncc4)c3c2)cc1S(=O)(=O)N1CCCCC1 [UNC10225117A]
Nuclear Count [1]: 82.78 | TFE3 % [2]: 4.68% | TFEB % [3]: 3.14% | DQ Intensity [4]: 254.18 | DQ Spot [4]: 83.51 | AK [5]: 150.20 | Outcome [6]: TOXIC

COc1cc2nccc(Nc3cccc(Oc4ccccc4)c3)c2cc1OC.Cl [UNC10225170A]
Nuclear Count [1]: 91.34 | TFE3 % [2]: 29.93% | TFEB % [3]: 18.56% | DQ Intensity [4]: 93.52 | DQ Spot [4]: 79.85 | AK [5]: 71.46 | Outcome [6]: TFEB/TFE3

Cl.c1ccc(Oc2ccc(Nc3ccnc4cc(-c5ccc(CN6CCNCC6)o5)ccc34)cc2)nc1 [UNC10225130B]
Nuclear Count [1]: 88.02 | TFE3 % [2]: 38.53% | TFEB % [3]: 17.19% | DQ Intensity [4]: 87.94 | DQ Spot [4]: 55.20 | AK [5]: 101.15 | Outcome [6]: LYSO TOXIC

Cl.Cn1ccc(-c2cccc(Nc3ccnc4cc(-c5nccs5)ccc34)c2)n1 [UNC10225141A]
Nuclear Count [1]: 43.03 | TFE3 % [2]: 26.05% | TFEB % [3]: 12.07% | DQ Intensity [4]: 161.91 | DQ Spot [4]: 66.27 | AK [5]: 174.83 | Outcome [6]: TOXIC

Cc1cccc2c(-c3ccncc3)c(-c3ccc(F)cc3)nn12.Cl [UNC10225316A]
Nuclear Count [1]: 85.13 | TFE3 % [2]: 21.03% | TFEB % [3]: 5.61% | DQ Intensity [4]: 71.88 | DQ Spot [4]: 91.98 | AK [5]: 93.04 | Outcome [6]: TFE3

Cl.c1ccc(-c2ccc3c(Nc4ccc5[nH]ccc5c4)ccnc3c2)nc1 [UNC10225345A]
Nuclear Count [1]: 89.15 | TFE3 % [2]: 38.32% | TFEB % [3]: 8.10% | DQ Intensity [4]: 44.66 | DQ Spot [4]: 42.49 | AK [5]: 157.00 | Outcome [6]: TOXIC

CN(C)Cc1ccc(-c2ccc3c(Nc4ccc(Oc5ccccn5)cc4)ccnc3c2)o1 [UNC10225428A]
Nuclear Count [1]: 92.33 | TFE3 % [2]: 34.27% | TFEB % [3]: 28.26% | DQ Intensity [4]: 85.61 | DQ Spot [4]: 47.88 | AK [5]: 81.74 | Outcome [6]: LYSO TOXIC
